The values below come from US20220204490A1, “Substituted 4-[5-(Benzofuran-2-yl)-1,2,4-Oxadiazol-3-yl]Benzoic Acid Compounds for Use in Therapy for Neuropathic Pain” (King's College London, priority 2019, published 2022).

The test system of experiment [1] is rats subjected to L5 SNL. Nature of the experiment: Pain threshold, mechanical allodynia (von Frey hairs) after nerve ligation. The format is in vivo. As to conditions: rat L5 SNL; 3 mg/kg po every other day for 4 weeks; versus placebo; FIG. 1. From the text:
(§1) Adult male Sprague-Dawley rats (150-200 g) were housed under natural light: dark cycles and provided water and food ad lib. They were habituated to the testing paradigms for 3-5 days before data collection. All protocols were approved by the Animal Care and Use Committee of Kings College London and UK Home Office.
(§2) Animals were studied using the standard model for neuropathic pain (lumbar 5 spinal nerve ligation, L5 SNL; see, e.g., Kim et al., 1992). This is the most widely used model in neuropathic pain studies because of its high reproducibility of spontaneous and evoked pain (hyperalgesia, allodynia) and the absence of autotomy (see, e.g., Barrot, 2012; Huang et al., 2016).
(§3) Adult rats received a partial nerve ligation of the left sciatic nerve (see, e.g., Seltzer et al., 1990) under isoflurane (Abbott Animal Health) inhalation anesthesia. A small incision was made midway up the left thigh to expose the sciatic nerve. […]
(§4) Pain thresholds were measured according to the methods described below, baseline at 1 day prior to surgery, and at 1, 6, 9, 16, 23, and 28 days after surgery.
Static mechanical withdrawal thresholds were assessed by applying von Frey hairs (Touch Test, Stoelting, Ill., USA) to the plantar surface of the hind paw. […] A positive response was recorded when a 40% withdrawal response occurred over 5 applications. […]

Experiment [2] has as its system rats subjected to L5 SNL. Nature of the experiment: Pain threshold, thermal hyperalgesia, hot plate (radiant heat paw withdrawal latency). The format is in vivo. Conditions: rat L5 SNL; 3 mg/kg po every other day for 4 weeks; versus placebo; FIG. 2.
From the text: as §1, §2
(§5) Adult rats received a partial nerve ligation of the left sciatic nerve (see, e.g., Seltzer et al., 1990) under isoflurane (Abbott Animal Health) inhalation anesthesia. A small incision was made midway up the left thigh to expose the sciatic nerve. The nerve was carefully cleared of surrounding connective tissues at a site near the trochanter just distal to the point at which the posterior biceps semitendinosus nerve branches off the common sciatic nerve. […]
as §4
Thermal hyperalgesia was assessed using a modified method of Hargreaves et al., 1988. […]

The subject of experiment [3] is rats subjected to L5 SNL. Nature of the experiment: Pain threshold, thermal hyperalgesia, cold plate. The format is in vivo. As to conditions: rat L5 SNL; 3 mg/kg po every other day for 4 weeks; plate at 4 °C; versus placebo; FIG. 3.
From the text: as §1, §2, §3, §4
Withdrawal of the hind paw in response to painful cold stimulation was assessed using an Incremental Hot/Cold Plate (IITC Life Sciences) set at 4±0.1° C. […] The latency to withdraw the paw was measured to the nearest 0.01 seconds. […]

The subject of experiment [4] is rats subjected to L5 SNL. Description: Pain threshold, Randall-Selitto test (paw pressure threshold). The format is in vivo. As to conditions: rat L5 SNL; 3 mg/kg po every other day for 4 weeks; versus placebo; FIG. 4.
From the text: as §1, §2, §3, §4
Mechanical nociceptive thresholds were evaluated using an Analgesy-Meter (Ugo Basile, Comerio, Italy) (see, e.g., Raghavendra et al., 2003). […] The pressure required to elicit paw withdrawal, the paw pressure threshold, in grams, was determined. […]

In experiment [5] the test system is tumour necrosis factor α (TNFα). Nature of the experiment: RT-qPCR analysis of TNFα expression in spinal cord after nerve injury. The format is in vivo. Conditions: rat; 14 days after injury; 3 mg/kg po every other day; versus placebo; FIG. 5. As to the method: (§6) Two groups of 11 rats were studied. In each group, the rats received partial nerve ligation of the left sciatic nerve (L5 SNL), as described above. In one group, the rats were treated with test compound; in the other group, the rats were treated with placebo. In each group, 8 animals were used for behavioral studies (for 28 days following surgery), as described below. In each group, 3 animals were used for tissue analysis (at 14 days following surgery), as described below.
(§7) Rats were treated with treatment solution or a placebo, orally, starting on the day after surgery and subsequently every other day for 4 weeks.
(§8) For treated animals, treatment solution was administered orally (po), by oral gavage, to give a dose of 3 mg/kg.
(§9) Fourteen days after injury, three rats from each group were sacrificed. […] Total RNA was isolated with the Qiagen RNeasy® Mini kit and reverse transcribed with a QuantiTect® Reverse Transcription kit (Qiagen). Levels of tumour necrosis factor α (TNFα) and tumour necrosis factor receptor 1 (TNFR1) expression were quantitated in triplicate, relative to glyceraldehyde 3-phosphate dehydrogenase (GAPDH) and triplicate non-template controls for each gene, by RT-qPCR analysis on a LightCycler® 480 instrument with LightCycler® SYBR® Green 1 Master reagent (Roche). […]
A general note: Real-time PCR tracks product formation cycle by cycle.

In experiment [6] the test system is tumour necrosis factor receptor 1 (TNFR1). Nature of the experiment: RT-qPCR analysis of TNFR1 expression in spinal cord after nerve injury. The format is in vivo. As to conditions: rat; 14 days after injury; 3 mg/kg po every other day; versus placebo; FIG. 6. Here is the method: as §6, §7, §8, §9
Experiment [7] deals with brain-derived neurotrophic factor (BDNF). Nature of the experiment: Immunocytochemistry of BDNF in spinal cord after nerve injury. The format is in vivo. As to conditions: rat; 14 days after injury; 3 mg/kg po every other day; versus placebo; FIG. 7. As to the method:
as §6, §7
For treated animals, treatment solution was administered orally (po), by oral gavage, to give a dose of 3 mg/kg. […]
Multichannel fluorescence (DAPI-FITC-Texas Red filter set) images were captured using a Zeiss LSM 700 laser-scanning confocal microscope. […] Axiovision software was used to collect information on pixel immunoreactivity used for quantitative purposes. […]
FIG. 7 is a bar graph showing the BDNF level (arbitray units) in the dorsal horn ipsilateral to peripheral nerve injury for (a) rats treated with placebo and (b) rats treated with BOBA-001. Five serial sections per injured cord analysed, from 3 animals per group (n=3). […]

Experiment [8] relates to rats subjected to L5 SNL. Nature of the experiment: Standard model for neuropathic pain (L5 SNL), behavioural studies overall. The format is in vivo. As to conditions: rat L5 SNL; treated for 4 weeks, 3 mg/kg po every other day; versus placebo.
From the text: as §1, §2, §5, §4

For experiment [9], the system named is axonal outgrowth. Conditions: models of nerve injury; earlier work of the Applicant (Borthwick et al., 2016); cited from earlier work.

Take `Cc1ccc(C)c2oc(-c3nc(-c4ccc(C(=O)O)cc4)no3)cc12` [BOBA-001, 4-(5-(4,7-Dimethylbenzofuran-2-yl)-1,2,4-oxadiazol-3-yl)benzoic acid]: in experiment [1], the “mechanical paw withdrawal threshold (von Frey)” value is “significant improvement”. In addition, the “hot plate paw withdrawal (thermal threshold)” value in experiment [2] was “significant improvement”. Moreover, in experiment [3], the “cold plate paw withdrawal (thermal threshold)” value was “significant improvement”. For the same molecule, the “Randall Sellito paw withdrawal threshold (mechanical threshold)” value in [4] is “significant improvement”. Besides, the “TNFα: GAPDH expression ratio in the dorsal horn ipsilateral to peripheral nerve injury” value in [5] was “significantly down-regulated”. Besides, the “TNFR1: GAPDH expression ratio in the dorsal horn ipsilateral to peripheral nerve injury” value in experiment [6] was “significantly down-regulated”. Further, the “BDNF level in the dorsal horn ipsilateral to peripheral nerve injury” value in experiment [7] was “significantly down-regulated”. For the same molecule, the amelioration of pain result in experiment [8] was “significant amelioration of pain”. Besides, in experiment [9], the axonal outgrowth entry is on record as “causes axonal outgrowth”.
